Test results taken from patent US20060160775A1, “Combination therapy” (priority 2003, published 2006).

How the values were obtained:
[1] = system: Human LoVo colorectal carcinoma tumour xenografts; assay: Human LoVo colorectal carcinoma tumour xenografts in nude mice; assay type: in vivo, athymic (nu/nu genotype) mouse; conditions: for Number of tumour regressions evident at day 14: groups of nine; for Mean % Inhibition of tumour growth at day 14: vs vehicle control
Experimental: Human LoVo Colorectal Carcinoma Tumour Xenografts in Nude Mice
1×10^7 LoVo tumour cells in 0.1 ml of serum free Dulbecco's Modified Eagle's Medium (DMEM) were injected subcutaneously (s.c.) into the flank of each athymic (nu/nu genotype) mouse. Tumour volumes were assessed by bilateral Vernier caliper measurement and, taking length to be the longest diameter across the tumour and width the corresponding perpendicular, calculated using the formula (length×width)×the square root of (length×width)×(π/6). […] ZD6126 was dissolved in a solution of 0.05% sodium carbonate in physiological saline and administered by intraperitoneal injection at 0.1 ml/10 g body weight. […] Inhibition of tumour growth from the start of treatment was assessed on day 14 by comparison of the differences in tumor volume between control and treated groups. In addition, the number of tumour regressions following 14 days of treatment was ascertained (tumour regression being evident if the tumour volume at day 14 was smaller than the pre-treatment value on day 0).

tumour models = assay: Anti-tumour activity in a range of models; assay type: in vivo; conditions: once-daily oral administration
tumour vasculature = conditions: in vivo; cited from earlier work
[2] = AZD2171 alone, 3 mg/kg/day, days 0-14, p.o.
[3] = ZD6126 alone, 100 mg/kg/day, days 0-2, i.p.

COc1cc2c(Oc3ccc4[nH]c(C)cc4c3F)ncnc2cc1OCCCN1CCCC1 [AZD2171, 4-(4-fluoro-2-methylindol-5-yloxy)-6-methoxy-7-(3-(pyrrolidin-1-yl)propoxy)quinazoline]
Number of tumour regressions evident at day 14 [1, 2]: 0/9
Mean % Inhibition of tumour growth at day 14 [1, 2]: 62% (P < 0.001)
Anti-tumour activity (tumour models): broad-spectrum anti-tumour activity

COc1cc2c(c(OC)c1OC)-c1ccc(OP(=O)(O)O)cc1[C@@H](NC(C)=O)CC2 [ZD6126, (5S)-5-(acetylamino)-9,10,11-trimethoxy-6,7-dihydro-5H-dibenzo[a,c]cyclohepten-3-yl dihydrogen phosphate]
Number of tumour regressions evident at day 14 [1, 3]: 1/9
Mean % Inhibition of tumour growth at day 14 [1, 3]: 65% (P < 0.001)
Effect on tumour vasculature (tumour vasculature): selectively disrupts tumour vasculature leading to vessel occlusion and extensive tumour necrosis
